Data reported in PMC9668304 (2022).

Assays:
[1] = tested on: aminoglycoside aptamer (tobramycin-binding aptamer) (DNA, aptamer) GGGACTTGGTTTAGGTAATGAGTCCC; test: three-electrode square-wave voltammetry, 240 Hz; settings: 137 mM NaCl, 2.7 mM KCl; 1x PBS, ambient temperature; saturable Langmuir-Hill isotherm, reversible; immobilised aptamer
[2] = tested on: aminoglycoside aptamer (tobramycin-binding aptamer) (DNA, aptamer) GGGACTTGGTTTAGGTAATGAGTCCC; test: square-wave pulsed OECT (aptamer on gate), 70 Hz; settings: 137 mM NaCl, 2.7 mM KCl; 1x PBS, ambient temperature; saturable Langmuir-Hill isotherm, reversible; immobilised aptamer

binding [1]: yes | binding [2]: yes
SMILES: NC[C@H]1O[C@H](O[C@H]2[C@H](O)[C@@H](O[C@H]3O[C@H](CO)[C@@H](O)[C@H](N)[C@H]3O)[C@H](N)C[C@@H]2N)[C@H](N)C[C@@H]1O
